Where “and” joins values, the source holds several entries; their conditions need not be identical. Identical values can stand only once.
System: serum uric acid
Assay: Serum uric acid in male and female patients with hyperuricemia and gout, 7 days (Example 7)
Type: in vivo, human
Description: The study lasted 7 days, and patients were treated with placebo or 50 mg of enantiomerically-pure (S)-tofisopam once a day (qd) on Day 1 and Day 7 of the study, and with placebo or 50 mg of enantiomerically-pure (S)-tofisopam three times a day (tid) for Days 2 to 6 of the study. […] In Table 6, days indicated with a minus sign (e.g. D-1) indicate the time point corresponding to that number of days before treatment was initiated. For example, D-14 is the time point fourteen days before treatment was initiated.

[1] = 50 mg qd Day 1 and Day 7, tid Days 2 to 6, Day 1 6 h (Day 1 0 h = 0.0), hyperuricemia and gout
[2] = 50 mg qd Day 1 and Day 7, tid Days 2 to 6, Day 1 to Day 2: Day 1 0 h + Day 2, hyperuricemia and gout
[3] = 50 mg qd Day 1 and Day 7, tid Days 2 to 6, Day 2 (Day 1 0 h = 0.0), hyperuricemia and gout
[4] = 50 mg qd Day 1 and Day 7, tid Days 2 to 6, Day 3 (Day 1 0 h = 0.0), hyperuricemia and gout
[5] = 50 mg qd Day 1 and Day 7, tid Days 2 to 6, Day 4 (Day 1 0 h = 0.0), hyperuricemia and gout
[6] = 50 mg qd Day 1 and Day 7, tid Days 2 to 6, Day 5 (Day 1 0 h = 0.0), hyperuricemia and gout
[7] = 50 mg qd Day 1 and Day 7, tid Days 2 to 6, Day 6 (Day 1 0 h = 0.0), hyperuricemia and gout
[8] = 50 mg qd Day 1 and Day 7, tid Days 2 to 6, Day 6 to Day 7: Day 6 + Day 7, hyperuricemia and gout
[9] = 50 mg qd Day 1 and Day 7, tid Days 2 to 6, Day 7 (Day 1 0 h = 0.0), hyperuricemia and gout
[10] = 50 mg qd Day 1 and Day 7, tid Days 2 to 6, Day 8 (after treatment stopped), hyperuricemia and gout
[11] = 50 mg qd Day 1 and Day 7, tid Days 2 to 6, Day 15 (after treatment stopped), hyperuricemia and gout

SMILES: CC[C@@H]1C(C)=NN=C(c2ccc(OC)c(OC)c2)c2cc(OC)c(OC)cc21 [(S)-tofisopam]
- Percent change in serum uric acid, individual patients (P# 1-13) [1]: −12.0% and 4.1% and −4.3% and −8.0% and −12.5% and −8.1% and −13.9% and −8.2% and −5.6%
- Percent change in serum uric acid, mean (M) of 13 patients [1]: −6.9%
- Percent change in serum uric acid, individual patients (P# 1-13) [2]: −10.7% and −9.6% and −4.3% and −7.3% and −8.9% and −8.1% and −12.0% and −2.6% and −3.5%
- Percent change in serum uric acid, mean (M) of 13 patients [2]: −6.8%
- Percent change in serum uric acid, individual patients (P# 1-13) [3]: −21.3% and −19.2% and −8.6% and −14.7% and −17.7% and −16.2% and −24.1% and −5.2% and −7.0%
- Percent change in serum uric acid, mean (M) of 13 patients [3]: −13.6%
- Percent change in serum uric acid, individual patients (P# 1-13) [4]: −32.0% and −43.8% and −14.3% and −30.7% and −36.5% and −18.9% and −45.6% and −12.4% and −16.9% and −9.6%
- Percent change in serum uric acid, mean (M) of 13 patients [4]: −26.6%
- Percent change in serum uric acid, individual patients (P# 1-13) [5]: −38.7% and −54.8% and −27.1% and −42.7% and −43.8% and −37.8% and −54.4% and −59.8% and −35.2%
- Percent change in serum uric acid, mean (M) of 13 patients [5]: −41.8%
- Percent change in serum uric acid, individual patients (P# 1-13) [6]: −48.0% and −52.1% and −40.0% and −36.0% and −45.8% and −33.8% and −50.6% and −25.8% and −39.4%
- Percent change in serum uric acid, mean (M) of 13 patients [6]: −41.1%
- Percent change in serum uric acid, individual patients (P# 1-13) [7]: −40.0% and −53.4% and −31.4% and −64.0% and −45.8% and −31.1% and −50.6% and −28.9% and −39.4%
- Percent change in serum uric acid, mean (M) of 13 patients [7]: −43.1%
- Percent change in serum uric acid, individual patients (P# 1-13) [8]: −44.0% and −56.2% and −36.4% and −56.0% and −46.9% and −31.1% and −53.2% and −34.5% and −40.8%
- Percent change in serum uric acid, mean (M) of 13 patients [8]: −45.1%
- Percent change in serum uric acid, individual patients (P# 1-13) [9]: −48.0% (2×) and −58.9% and −41.4% and −47.9% and −31.1% and −55.7% and −40.2% and −42.3%
- Percent change in serum uric acid, mean (M) of 13 patients [9]: −47.1%
- Percent change in serum uric acid, individual patients (P# 1-13) [10]: −36.0% (2×) and −46.6% and −32.9% and −41.7% and −24.3% and −45.6% and −30.9% and −26.8%
- Percent change in serum uric acid, mean (M) of 13 patients [10]: −35.5%
- Percent change in serum uric acid, individual patients (P# 1-13) [11]: 36.0% and 17.8% and 25.7% and −13.3% and 1.0% and 39.2% and 30.4% and 10.3% and 26.8%
- Percent change in serum uric acid, mean (M) of 13 patients [11]: 18.9%
- Effect on serum uric acid levels (50 mg qd Day 1 and Day 7, tid Days 2 to 6, male and female patients with hyperuricemia and gout): decreases
- Serum uric acid levels once treatment was stopped after 7 days (after 7 days of 50 mg treatment, hyperuricemia and gout): began to increase again

Source: patent US9408852B2, “Method of lowering serum uric acid levels with (S)-tofisopam” (PHARMOS CORPORATION, priority 2011, dated 2016)
